According to publication PMC10590756, “Glutarate regulates T cell metabolism and anti-tumour immunity” (Nature Metabolism, 2023):

Assays:
human CD8^+ T cells = assay: Memory populations (CCR7/CD45RO) of human CD8^+ T cells by flow cytometry; type: cell-based
Experimental: This contrasts with octyl ester S-2HG, which decreases cell growth from 400 µM (Extended Data Fig. 1c).
Human PBMCs were obtained from NHSBT: Addenbrooke’s Hospital, Cambridge, UK or the Karolinska Hospital Service, Sweden. Ethical approval was obtained from the East of England-Cambridge Central Research Ethics Committee (06/Q0108/281) and consent was obtained from all participants. PBMCs from healthy donors were isolated from blood using discontinuous plasma Percoll gradients. Naive CD8^+ T cells were isolated using the Naive CD8^+ T Cell Isolation Kit (catalogue no. 130-093-244, Miltenyi Biotec), in accordance with the manufacturer’s instructions. Total CD8^+ T cells were purified by either positive or negative magnetic bead sorting (catalogue nos. 130-045-201 and 130-096-495, Miltenyi Biotec). All human CD8^+ T cells were activated with anti-human CD3/CD28 Dynabeads (catalogue no. 11131D, Thermo Fisher Scientific) at a 1:1 cell:bead ratio and cultured in complete RPMI 1640 supplemented with 10% FCS, 100 U ml^−1 penicillin, 100 µg ml^−1 streptomycin and 30 U ml^−1 interleukin-2 (IL-2) (catalogue no. 11147528001, Sigma-Aldrich).
Single-cell suspensions were stained with LIVE/DEAD Fixable Near-IR Dead Cell Stain Kit (catalogue no. 10119, Thermo Fisher Scientific) followed by surface and intracellular staining with fluorochrome-labelled antibodies (Supplementary Tables 1 and 2). Staining of cytoplasmic and nuclear antigens was performed using the Cytofix/Cytoperm Fixation/Permeabilization Kit (catalogue no. 554714, BD Biosciences) and the Transcription Factor Buffer Set (catalogue no. 562725, BD Biosciences), respectively. For the proliferation assays, cells were loaded with CellTrace Violet (catalogue no. C34557, Thermo Fisher Scientific) according to the manufacturer’s instructions. Samples were acquired on an Aurora (Cytek Biosciences).

human TET2 enzyme = target: T1, human TET2 enzyme (Homo sapiens, UniProt Q6N021); assay: Cell-free TET2 enzymatic activity assay; type: biochemical
T1 construct: purchased BPS Bioscience 50162
Experimental: A total of 2 nM of the human TET2 enzyme (catalogue no. 50162, BPS Bioscience) or 4 nM of the human KDM4C enzyme (catalogue no. 50105, BPS Bioscience) was incubated with the substrate of 30 nM single-stranded DNA (ssBiotin 26 nt Me-C Oligo, Genscript), in the presence of αKG (catalogue no. K3752, Sigma-Aldrich), 10 µM ammonium iron(II) sulphate hexahydrate (catalogue no. F3754, Sigma-Aldrich) in assay buffer (50 mM HEPES (catalogue no. 15630-080, Gibco), pH 7.0, 100 mM NaCl, 0.01% Pluronic F-127, 1 mM TCEP (S16054, Shanghai Yuanye Bio-Technology Company), 2 mM ascorbic acid (A5960, Sigma-Aldrich), 0.2 mg/ml BSA (catalogue no. B2064, Sigma-Aldrich) and 1,000 U ml^−1 catalase (catalogue no. C40, Sigma-Aldrich)). The concentration of αKG used for the TET2 standard and competitive assays was 115 µM and 4,500 µM, respectively. The concentration of αKG used for the KDM4C standard and competitive assays was 10 µM and 50 µM, respectively. The concentration of αKG used in the standard assay was calculated for each enzyme batch and is the concentration of substrate at which half the maximum reaction rate is achieved. DEG and glutaric acid were used in threefold serial dilution and the maximum concentration used was 5 mM. The pre-incubation time of the inhibitors with the TET2 mixture was 30 min at room temperature. The reaction step was at room temperature for 90 min. The product was detected by using a 5 nM anti-5hmC antibody (catalogue no. 39999, Active Motif), 5 nM Eu-Protein A (catalogue no. 61PRAKLB, Cisbio), 6.25 nM streptavidin-Alexa Fluor 647 (catalogue no. S21374, Thermo Fisher Scientific) and 10 mM EDTA (catalogue no. 0369, Sigma-Aldrich). For the standard curve, the ssBiotin 26 nt HydMe-C Oligo was used. The assays were performed in technical duplicates in a 384-well plate. Inhibitor analysis was performed within the linear range of catalysis.
The percentage of inhibition was calculated with the following formula: inhibition% = (1−(signal value per well−average low control)/(average high control−average low control)) × 100. Data were fitted using Prism (GraphPad Software) with a four-parameter equation via ‘log(inhibitor) versus response−variable slope’ model.

human KDM4C enzyme = target: T2, human KDM4C enzyme (Homo sapiens, UniProt Q9H3R0); assay: Cell-free KDM4C enzymatic activity assay; type: biochemical
T2 construct: purchased BPS Bioscience 50105
T2 sequence (Q9H3R0 2-372 limits assumed): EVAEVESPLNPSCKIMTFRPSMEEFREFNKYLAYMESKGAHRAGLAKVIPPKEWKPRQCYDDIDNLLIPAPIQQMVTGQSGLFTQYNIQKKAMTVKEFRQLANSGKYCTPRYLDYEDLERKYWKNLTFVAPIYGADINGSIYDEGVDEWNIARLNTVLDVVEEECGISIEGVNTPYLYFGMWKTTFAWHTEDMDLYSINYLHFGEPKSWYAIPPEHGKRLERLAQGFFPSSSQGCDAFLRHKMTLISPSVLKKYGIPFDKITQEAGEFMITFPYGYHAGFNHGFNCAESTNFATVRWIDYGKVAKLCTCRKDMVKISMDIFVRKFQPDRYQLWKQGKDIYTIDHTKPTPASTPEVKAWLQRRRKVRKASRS
Experimental: A total of 2 nM of the human TET2 enzyme (catalogue no. 50162, BPS Bioscience) or 4 nM of the human KDM4C enzyme (catalogue no. 50105, BPS Bioscience) was incubated with the substrate of 30 nM single-stranded DNA (ssBiotin 26 nt Me-C Oligo, Genscript), in the presence of αKG (catalogue no. K3752, Sigma-Aldrich), 10 µM ammonium iron(II) sulphate hexahydrate (catalogue no. F3754, Sigma-Aldrich) in assay buffer (50 mM HEPES (catalogue no. 15630-080, Gibco), pH 7.0, 100 mM NaCl, 0.01% Pluronic F-127, 1 mM TCEP (S16054, Shanghai Yuanye Bio-Technology Company), 2 mM ascorbic acid (A5960, Sigma-Aldrich), 0.2 mg/ml BSA (catalogue no. B2064, Sigma-Aldrich) and 1,000 U ml^−1 catalase (catalogue no. C40, Sigma-Aldrich)). […] The concentration of αKG used in the standard assay was calculated for each enzyme batch and is the concentration of substrate at which half the maximum reaction rate is achieved. […] The product was detected by using a 5 nM anti-5hmC antibody (catalogue no. 39999, Active Motif), 5 nM Eu-Protein A (catalogue no. 61PRAKLB, Cisbio), 6.25 nM streptavidin-Alexa Fluor 647 (catalogue no. S21374, Thermo Fisher Scientific) and 10 mM EDTA (catalogue no. 0369, Sigma-Aldrich). […]
The percentage of inhibition was calculated with the following formula: inhibition% = (1−(signal value per well−average low control)/(average high control−average low control)) × 100. […]

[1] = system: HIF-P4H activity against pFLAG-Gal4-mHIF-1α NTAD; assay: HIF-PH activity luciferase reporter assay in MEFs; type: cell-based, mouse
Source text: To test HIF-P4H inhibition via DEG treatment in a cellular system, we used a luciferase reporter assay driven by a Gal4 response element (GRE-luc), pFLAG-Gal4-mHIF-1α N-terminal transcription activation domain (NTAD)[35]. The NTAD contains proline residues that are hydroxylated by HIF-P4H enzymes to target the protein for degradation; thus, luciferase expression in this assay is controlled by HIF-P4H hydroxylation activity against the pFLAG-Gal4-mHIF-1α NTAD.
MEFs were transiently transfected using Lipofectamine 2000 (Thermo Fisher Scientific) with 20 ng per expression plasmid for 2 × 10^4 cells per well in a 96-well plate. Cells were treated with transfection mixes for 8 h.
Generation of plasmids for the HIF-PH activity luciferase reporter assay has been described previously: luciferase reporter driven by GRE-luc pFLAG-Gal4-mHIF-1α NTAD[35]. […] After 8 h of transient transfection with expression plasmids, cells were treated with experimental medium containing metabolites and drugs as described in the figure legends for 16 h; then, the luciferase signal assessed using the Steady-Glo Luciferase Assay System (Promega Corporation) detected using a luminometer. […]

SMILES | TCM populations (human CD8^+ T cells; glutarate alone (not esterified), higher doses, 10 days of culture) | IC50 (human TET2 enzyme; IC50 TET2 + 40× αKG, αKG 4,500 µM (competitive assay)) [µM] | IC50 (human TET2 enzyme; IC50 recombinant TET2, cell-free) [µM] | mode of TET2 inhibition (human TET2 enzyme; reduced inhibition with increased levels of αKG) | IC50 (human KDM4C enzyme) [µM] | mode of HIF-P4H-1 inhibition ([1]; MEFs treated 16 h with DEG and dimethyl αKG) | TCM population (CCR7^hiCD45RO^hi) (human CD8^+ T cells; 7 days of culture with DEG) | effector memory T (TEM) cell population (CCR7^loCD45RO^hi) (human CD8^+ T cells; 7 days of culture with DEG) | TET2 inhibition (human TET2 enzyme; cell-free, increasing concentrations, maximum 5 mM) | KDM4C inhibition (human KDM4C enzyme; cell-free, DEG alone) | cellular HIF-P4H activity ([1]; MEFs, 16 h, increasing concentrations of DEG)
O=C(O)CCCC(=O)O [glutarate, glutaric acid] | capable of increasing TCM populations | ~5000 | 1500 | competitive with αKG | 1000 | αKG-competitive | – | – | – | – | –
CCOC(=O)CCCC(=O)OCC [DEG, Diethyl glutarate] | – | – | – | – | – | – | increased the TCM population | decreased | did not inhibit | not capable of inhibiting | can inhibit
